Measured values taken from US9211310B2, “Use of a Chinese medicine composition in preparing medicaments for treating secondary prevention of myocardial infarction” (TASLY PHARMACEUTICAL GROUP CO., LTD, priority 2010, dated 2015).

Tested on: patients after acute myocardial infarction
Assay: TCM symptom score, total and single (chest pain, chest tightness, short breath, fatigue, palpitation, spontaneous perspiration, pale complexion), same clinical trial
Assay type: in vivo, human
Parameters: total score of TCM symptom, Mean / total score of TCM symptom, Min / total score of TCM symptom, Max / total score of TCM symptom, Md / change of total score of TCM symptom, Mean / change of total score of TCM symptom, Max / change of total score of TCM symptom, Md: scale not given here
Details: FAS
Text: 3508 patients who were in accordance with the diagnostic standards of AMI for 28 days to 2 years and differentiated as Qi deficiency and blood stagnation syndrome by TCM were studied. 0.5 g Chinese medicine composition prepared by the method of EXAMPLE 1 (Coded as QSYQ) was administrated half an hour after meal, 3 times per day.
They included the overall survival time, angina pectoris score, TCM symptom score and life quality score, where angina pectoris score, TCM symptom score and life quality score were evaluated at randomization, in 1st, 3rd, 6th, 9th, 12th month after treatment and 18th month after follow-up.
The analysis method referred to the angina pectoris score.

[1] = 9 months after treatment-baseline
[2] = 12 months after treatment-baseline

SMILES: CC(=O)Oc1ccccc1C(=O)O [Control group, aspirine]
- change of pale complexion −1, number of patients [1]: 59
- change of pale complexion −1, percent of patients [1]: (3.45%)
- change of palpitation 0, number of patients [1]: 948
- change of palpitation 0, percent of patients [1]: (55.44%)
- change of palpitation 1, number of patients [1]: 557
- change of palpitation 1, percent of patients [1]: (32.57%)
- change of palpitation 2, number of patients [1]: 76
- change of palpitation 2, percent of patients [1]: (4.44%)
- change of palpitation 3, number of patients [1]: 7
- change of palpitation 3, percent of patients [1]: (0.41%)
- change of palpitation −1, percent of patients [1]: (6.84%)
- change of palpitation −2, number of patients [1]: 5
- change of palpitation −2, percent of patients [1]: (0.29%)
- change of palpitation −3, number of patients [1]: 0
- change of palpitation −3, percent of patients [1]: (0.00%)
- change of short breath 0, % of patients [1]: (59.06%)
- change of short breath 0, number of patients [1]: 1010
- change of short breath 2, % of patients [1]: (30.35%)
- change of short breath 2, number of patients [1]: 519
- change of short breath 4, % of patients [1]: (3.57%)
- change of short breath 4, number of patients [1]: 61
- change of short breath 6, % of patients [1]: (0.47%)
- change of short breath 6, number of patients [1]: 8
- change of short breath −2, % of patients [1]: (6.26%)
- change of short breath −2, number of patients [1]: 107
- change of short breath −4, % of patients [1]: (0.23%)
- change of short breath −4, number of patients [1]: 4
- change of short breath −6, % of patients [1]: (0.06%)
- change of short breath −6, number of patients [1]: 1
- change of spontaneous perspiration 0, number of patients [1]: 910
- change of spontaneous perspiration 0, percent of patients [1]: (53.25%)
- change of spontaneous perspiration 1, number of patients [1]: 491
- change of spontaneous perspiration 1, percent of patients [1]: (28.73%)
- change of spontaneous perspiration 2, number of patients [1]: 113
- change of spontaneous perspiration 2, percent of patients [1]: (6.61%)
- change of spontaneous perspiration 3, number of patients [1]: 31
- change of spontaneous perspiration 3, percent of patients [1]: (1.81%)
- change of spontaneous perspiration −1, number of patients [1]: 154
- change of spontaneous perspiration −1, percent of patients [1]: (9.01%)
- change of spontaneous perspiration −2, number of patients [1]: 10
- change of spontaneous perspiration −2, percent of patients [1]: (0.59%)
- change of spontaneous perspiration −3, number of patients [1]: 0
- change of spontaneous perspiration −3, percent of patients [1]: (0.00%)
- change of total score of TCM symptom, Max [1]: 15.00
- change of total score of TCM symptom, Md [1]: −4.00
- change of total score of TCM symptom, Mean [1]: −4.52
- change of total score of TCM symptom, Min [1]: −33.00
- change of short breath 0, number of patients (12 months after treatment): 955
- distribution of total score of TCM symptom: Medium, number of patients (12 months after treatment): 235
- distribution of total score of TCM symptom: Medium, percentage of patients (12 months after treatment): (16.31%)
- distribution of total score of TCM symptom: Mild, number of patients (12 months after treatment): 1205
- distribution of total score of TCM symptom: Mild, percentage of patients (12 months after treatment): (83.62%)
- distribution of total score of TCM symptom: Severe, number of patients (12 months after treatment): 1
- distribution of total score of TCM symptom: Severe, percentage of patients (12 months after treatment): (0.07%)
- fatigue score 0, % of patients (12 months after treatment): (36.67%)
- fatigue score 0, number of patients (12 months after treatment): 630
- fatigue score 2, % of patients (12 months after treatment): (58.21%)
- fatigue score 2, number of patients (12 months after treatment): 1000
- fatigue score 4, % of patients (12 months after treatment): (4.42%)
- fatigue score 4, number of patients (12 months after treatment): 76
- fatigue score 6, % of patients (12 months after treatment): (0.70%)
- fatigue score 6, number of patients (12 months after treatment): 12
- pale complexion score 0, number of patients (12 months after treatment): 1011
- pale complexion score 0, percent of patients (12 months after treatment): (58.85%)
- pale complexion score 1, number of patients (12 months after treatment): 590
- pale complexion score 1, percent of patients (12 months after treatment): (34.34%)
- pale complexion score 2, number of patients (12 months after treatment): 104
- pale complexion score 2, percent of patients (12 months after treatment): (6.05%)
- pale complexion score 3, number of patients (12 months after treatment): 13
- pale complexion score 3, percent of patients (12 months after treatment): (0.76%)
- palpitation score 0, number of patients (12 months after treatment): 669
- palpitation score 0, percent of patients (12 months after treatment): (38.94%)
- palpitation score 2, number of patients (12 months after treatment): 892
- palpitation score 2, percent of patients (12 months after treatment): (51.92%)
- palpitation score 4, number of patients (12 months after treatment): 138
- palpitation score 4, percent of patients (12 months after treatment): (8.03%)
- palpitation score 6, number of patients (12 months after treatment): 19
- palpitation score 6, percent of patients (12 months after treatment): (1.11%)
- short breath score 0, % of patients (12 months after treatment): (31.72%)
- short breath score 0, number of patients (12 months after treatment): 545
- short breath score 3, % of patients (12 months after treatment): (57.92%)
- short breath score 3, number of patients (12 months after treatment): 995
- short breath score 6, % of patients (12 months after treatment): (10.07%)
- short breath score 6, number of patients (12 months after treatment): 173
- short breath score 9, % of patients (12 months after treatment): (0.29%)
- short breath score 9, number of patients (12 months after treatment): 5
- spontaneous perspiration score 0, number of patients (12 months after treatment): 845
- spontaneous perspiration score 0, percent of patients (12 months after treatment): (49.19%)
- spontaneous perspiration score 1, number of patients (12 months after treatment): 804
- spontaneous perspiration score 1, percent of patients (12 months after treatment): (46.80%)
- spontaneous perspiration score 2, number of patients (12 months after treatment): 58
- spontaneous perspiration score 2, percent of patients (12 months after treatment): (3.38%)
- spontaneous perspiration score 3, number of patients (12 months after treatment): 11
- spontaneous perspiration score 3, percent of patients (12 months after treatment): (0.64%)
- total score of TCM symptom, Max (12 months after treatment): 37.00
- total score of TCM symptom, Md (12 months after treatment): 8.00
- total score of TCM symptom, Mean (12 months after treatment): 8.41
- total score of TCM symptom, Min (12 months after treatment): 0.00
- change of fatigue 0, % of patients [2]: (47.08%)
- change of fatigue 0, number of patients [2]: 805
- change of fatigue 2, % of patients [2]: (35.38%)
- change of fatigue 2, number of patients [2]: 605
- change of fatigue 4, % of patients [2]: (9.59%)
- change of fatigue 4, number of patients [2]: 164
- change of fatigue 6, % of patients [2]: (1.46%)
- change of fatigue 6, number of patients [2]: 25
- change of fatigue −2, % of patients [2]: (5.85%)
- change of fatigue −2, number of patients [2]: 100
- change of fatigue −4, % of patients [2]: (0.64%)
- change of fatigue −4, number of patients [2]: 11
- change of fatigue −6, % of patients [2]: (0.00%)
- change of fatigue −6, number of patients [2]: 0
- change of pale complexion 0, number of patients [2]: 1202
- change of pale complexion 0, percent of patients [2]: (70.37%)
- change of pale complexion 1, number of patients [2]: 450
- change of pale complexion 1, percent of patients [2]: (26.35%)
- change of pale complexion −1, number of patients [2]: 56
- change of pale complexion −1, percent of patients [2]: (3.28%)
- change of palpitation 0, number of patients [2]: 882
- change of palpitation 0, percent of patients [2]: (51.58%)
- change of palpitation 1, number of patients [2]: 602
- change of palpitation 1, percent of patients [2]: (35.20%)
- change of palpitation 2, number of patients [2]: 102
- change of palpitation 2, percent of patients [2]: (5.96%)
